Experiments:
Format in all cases: cell-based
Hep3B cells = test: Cell viability CTG assay, Hep3B; conditions: Homo sapiens, 72 h, 0.001-50 μM, read-out: Hep3B Geomean absolute IC50 by molecule, 72 H
Method in brief: (§1)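 Cells exposed to compound at 0.25% v/v DMSO for 72 h (37° C., 5% CO2). ATP quantified by CellTiter-Glo luminescence, normalized to DMSO control. Absolute IC50 (T/C=50%) by non-linear regression on duplicate means; geometric mean used for averages.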

U-937 = test: Cell viability, additional cell lines (CellTiter-Glo), U-937; conditions: Homo sapiens, U-937, 72 h; read-out: Absolute IC50
Method: (§2) Tumor cells are grown at 37° C. in a humidified atmosphere with 5% CO2 in RPMI 1640 medium, supplemented with 10% (v/v) fetal calf serum and 50 μg/ml gentamicin for up to 20 passages, and are passaged once or twice weekly.
(§3) Cells are harvested from exponential phase cultures, counted and plated in 96 well flat-bottom microtiter plates at a cell density depending on the cell line's growth rate (4,000-20,000 cells/well depending on the cell line's growth rate, up to 60,000 for hematological cancer cell lines) in RPMI 1640 medium supplemented with 10% (v/v) fetal calf serum and 50 μg/ml gentamicin (140 μl/well). Cultures are incubated at 37° C. and 5% CO2 in a humidified atmosphere. After 24 h, 10 μl of test compounds or control medium are added and left on the cells for another 72 h. Compounds are serially diluted in DMSO, transferred in cell culture medium, and added to the assay plates by using a Tecan Freedom EVO 200 robotic platform. The DMSO concentration is kept constant at 0.3% v/v across the assay plate. Viability of cells is quantified by the CellTiter-Glo® cell viability assay (Promega G8462). After incubation of cells, 100 μl of CellTiter-Glo® One Solution Assay reagent are added to each well. Plates are shaken for 2 minutes to induce cell lysis and incubated for 20 minutes prior to reading luminescence (LU) by using the EnVision® Xcite multilabel plate reader (Perkin Elmer). […]

H929 cells = test: Cell viability CTG assay, H929; parameters: key to Geomean absolute IC50 by molecule, 72 H: Inactive represents IC50 > 50 μM; C represents 50 μM ≥ IC50 > 5 μM; conditions: H929, 72 h, 0.001-50 μM
Method in brief: as §1

UOC-M1 = test: Cell viability, additional cell lines (CellTiter-Glo), UOC-M1; conditions: UOC-M1, 72 h
Method: as §2, §3

U-266 = test: Cell viability, additional cell lines (CellTiter-Glo), U-266; conditions: Homo sapiens, U-266, 72 h; read-out: Absolute IC50
Method: as §2, §3

Ikaros (IKZF1) = biological target: T1, Ikaros (IKZF1) (Homo sapiens, UniProt Q13422+Q96SW2); test: Ikaros degradation assay, H929 cell line; conditions: NCI-H929, H929 cells, 24 h, read-out: % of IKZF1 protein reduction
T1 construct: Ikaros degradation in the H929 cell line was investigated; endogenous in cells; host or cells: H929
Method in brief: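 Cells were exposed to test compounds over a concentration range for 24 h at 37° C, 5% CO2, then lysed in RIPA buffer. Equal protein (BCA) was resolved by SDS-PAGE and immunoblotted. Band densitometry gave the protein levels used for evaluation.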

Kasumi-1 = test: Cell viability, additional cell lines (CellTiter-Glo), Kasumi-1; conditions: Homo sapiens; Kasumi-1, 72 h; read-out: Absolute IC50
Method: as §2, §3

LP-1 = test: Cell viability, additional cell lines (CellTiter-Glo), LP-1; conditions: Homo sapiens, LP-1, 72 h; read-out: Absolute IC50
Method: as §2, §3

NOMO-1 = test: Cell viability, additional cell lines (CellTiter-Glo), NOMO-1; conditions: Homo sapiens, NOMO-1, 72 h; read-out: Absolute IC50
Method: as §2, §3

NCI-H929 = test: Cell viability, additional cell lines (CellTiter-Glo), NCI-H929; conditions: Homo sapiens, NCI-H929, 72 h; read-out: Absolute IC50
Method: as §2, §3

22Rv1 = test: Cell viability, additional cell lines (CellTiter-Glo), 22Rv1; conditions: Homo sapiens, 22Rv1, 72 h
Method: as §2, §3

HL-60 = test: Cell viability, additional cell lines (CellTiter-Glo), HL-60; conditions: Homo sapiens, HL-60, 72 h; read-out: Absolute IC50
Method: as §2, §3

PL-21 = test: Cell viability, additional cell lines (CellTiter-Glo), PL-21; conditions: PL-21, 72 h; read-out: Absolute IC50
Method: as §2, §3

MOLT-3 = test: Cell viability, additional cell lines (CellTiter-Glo), MOLT-3; conditions: Homo sapiens, MOLT-3, 72 h
Method: as §2, §3

MOLM-13 = test: Cell viability, additional cell lines (CellTiter-Glo), MOLM-13; conditions: Homo sapiens, MOLM-13, 72 h
Method: as §2, §3

[1] = 9.5 μM, read-out: Test/Control viability at 9.5 μM

T1 sequence (Q13422 whole entry): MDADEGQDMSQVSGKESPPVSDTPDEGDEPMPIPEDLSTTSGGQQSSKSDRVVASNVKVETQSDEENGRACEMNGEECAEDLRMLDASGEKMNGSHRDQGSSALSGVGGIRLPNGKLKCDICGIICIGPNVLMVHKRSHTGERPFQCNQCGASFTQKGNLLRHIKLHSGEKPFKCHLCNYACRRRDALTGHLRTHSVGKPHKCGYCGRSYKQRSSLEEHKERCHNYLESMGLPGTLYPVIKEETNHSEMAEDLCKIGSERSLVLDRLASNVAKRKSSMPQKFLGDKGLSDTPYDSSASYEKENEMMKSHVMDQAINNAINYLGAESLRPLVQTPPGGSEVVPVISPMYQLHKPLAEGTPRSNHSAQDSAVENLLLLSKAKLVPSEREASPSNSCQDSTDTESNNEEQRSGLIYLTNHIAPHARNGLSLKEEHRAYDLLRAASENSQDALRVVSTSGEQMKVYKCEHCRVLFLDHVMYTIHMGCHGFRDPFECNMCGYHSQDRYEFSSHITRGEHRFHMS
T1 sequence (Q96SW2 whole entry): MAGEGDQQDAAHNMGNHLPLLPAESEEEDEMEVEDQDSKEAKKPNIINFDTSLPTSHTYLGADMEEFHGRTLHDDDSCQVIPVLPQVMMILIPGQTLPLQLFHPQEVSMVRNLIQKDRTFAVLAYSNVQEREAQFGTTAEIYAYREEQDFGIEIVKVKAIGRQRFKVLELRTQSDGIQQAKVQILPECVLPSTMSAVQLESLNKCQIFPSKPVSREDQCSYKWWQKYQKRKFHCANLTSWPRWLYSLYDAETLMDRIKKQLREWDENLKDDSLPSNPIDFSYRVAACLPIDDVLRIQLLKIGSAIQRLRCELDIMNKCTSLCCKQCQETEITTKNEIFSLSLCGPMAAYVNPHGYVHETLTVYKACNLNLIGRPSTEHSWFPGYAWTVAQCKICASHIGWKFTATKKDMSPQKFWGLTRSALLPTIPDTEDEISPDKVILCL
T1 sequence (Q16531 whole entry partner): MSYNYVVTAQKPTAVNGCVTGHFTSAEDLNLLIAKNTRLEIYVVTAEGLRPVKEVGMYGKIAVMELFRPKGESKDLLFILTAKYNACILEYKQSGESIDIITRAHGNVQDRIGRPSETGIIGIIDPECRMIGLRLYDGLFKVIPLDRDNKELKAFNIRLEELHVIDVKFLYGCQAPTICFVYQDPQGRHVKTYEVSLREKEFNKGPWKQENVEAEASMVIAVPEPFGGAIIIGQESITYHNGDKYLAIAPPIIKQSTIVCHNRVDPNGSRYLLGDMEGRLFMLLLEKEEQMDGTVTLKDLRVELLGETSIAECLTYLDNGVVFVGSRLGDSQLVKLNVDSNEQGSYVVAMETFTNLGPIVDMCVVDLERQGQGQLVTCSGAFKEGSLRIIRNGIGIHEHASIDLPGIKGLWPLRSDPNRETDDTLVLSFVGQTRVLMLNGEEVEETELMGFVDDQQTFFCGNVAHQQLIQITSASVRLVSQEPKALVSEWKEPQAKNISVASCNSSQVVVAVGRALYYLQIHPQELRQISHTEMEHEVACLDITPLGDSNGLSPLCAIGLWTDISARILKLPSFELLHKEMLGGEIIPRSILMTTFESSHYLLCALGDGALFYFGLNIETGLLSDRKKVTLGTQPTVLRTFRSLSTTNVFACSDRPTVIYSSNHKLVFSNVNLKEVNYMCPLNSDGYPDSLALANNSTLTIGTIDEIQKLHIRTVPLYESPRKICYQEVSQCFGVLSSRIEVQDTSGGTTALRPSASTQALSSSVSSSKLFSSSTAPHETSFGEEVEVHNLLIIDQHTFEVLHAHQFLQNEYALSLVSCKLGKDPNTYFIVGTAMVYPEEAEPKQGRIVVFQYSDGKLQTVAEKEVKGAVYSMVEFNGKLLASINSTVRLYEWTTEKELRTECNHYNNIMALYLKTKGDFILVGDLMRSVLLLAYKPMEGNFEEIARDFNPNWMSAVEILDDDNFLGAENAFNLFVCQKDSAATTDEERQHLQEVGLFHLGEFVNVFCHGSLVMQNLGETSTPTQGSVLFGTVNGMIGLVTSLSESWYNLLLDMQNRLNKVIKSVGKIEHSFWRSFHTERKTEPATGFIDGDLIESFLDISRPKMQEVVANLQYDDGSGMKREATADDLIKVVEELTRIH

NCc1ccc2c(c1)CN(C1CCC(=O)NC1=O)C2=O (centres unmarked) [Compound 1, 3-(5-(aminomethyl)-1-oxoisoindolin-2-yl)piperidine-2,6-dione]
IC50 (Hep3B cells): ≤ 0.1 µM
IC50 (U-937): > 30 µM
Geomean absolute IC50 by molecule, 72 H (H929 cells): Inactive
viability at 9.5 µM (UOC-M1; [1]): ≤ 30%
IC50 (UOC-M1; read-out: Absolute IC50): ≤ 0.1 µM
IC50 (U-266): > 30 µM
inhibition at 10 µM (Ikaros (IKZF1); 10 uM): 0 to 24%
inhibition at 20 µM (Ikaros (IKZF1); 20 uM): 0 to 24%
IC50 (Kasumi-1): > 30 µM
IC50 (LP-1): > 30 µM
IC50 (NOMO-1): > 30 µM
IC50 (NCI-H929): > 30 µM
IC50 (22Rv1; read-out: Absolute IC50): ≥ 30 µM
viability at 9.5 µM (22Rv1; [1]): ≤ 60%
IC50 (HL-60): > 30 µM
IC50 (PL-21): > 30 µM
IC50 (MOLT-3; read-out: Absolute IC50): ≥ 30 µM
viability at 9.5 µM (MOLT-3; [1]): ≤ 60%
IC50 (MOLM-13; read-out: Absolute IC50): ≥ 30 µM
viability at 9.5 µM (MOLM-13; [1]): ≤ 60%

— patent US20240294489A1 (Captor Therapeutics S.A., priority 2020, published 2024)
